Test results: PMC11763059, “GENI as an AMPK Activator Binds α and γ Subunits and Improves the Memory Dysfunction of Alzheimer’s Disease Mouse Models via Autophagy and Neuroprotection” (Antioxidants, 2025)

What was measured:
[1] = mouse, in vivo
Excerpt: Each group comprised 10 mice. […] Dosing lasted for 10 weeks. […] The mice were sacrificed after 10 weeks of administration.
At the end of the animal experiment, the epididymis fat, heart, liver, spleen, and kidney of the mice were removed for weighing analysis.

[2] = test system: T1, p53; test: Drug affinity responsive target stability (DARTS), p53; assay type: binding; conditions: 0.1–100 μM GENI, protein: pronase 100:1
T1 construct: endogenous in cells
Method: Cells were lysed by RIPA lysis buffer, and the protein concentration was measured. The lysate was divided into six groups. Before incubation with protease (protein: pronase = 50:1 w/w for PI3K and AMPK detection, 5:1 for MAPK detection, 100:1 for p53 detection) for 25 min in 25 °C, 0.1–100 μM GENI was added to lysates and incubated for 2 h at room temperature. The samples were mixed with loading buffer and then separated on 8% SDS-PAGE for immunoblotting analysis.

[3] = test system: natural aging AD mice; test: Immunohistochemistry and Western blot of brain in naturally aged AD mice; assay type: in vivo; conditions: GENI 25 mg/kg, compared with aged group
Method: Each group had 10 mice. GENI was dissolved in ultrapure water and administered by gavage, whereas Dor was dissolved in normal saline. The pH was adjusted to pH 5 with 0.1 M hydrochloric acid to the clarified solution and administered by intraperitoneal injection. The dosing experiment also lasted 10 weeks. Animal behavioral experiments and sampling at the end of the animal experiment were performed as described above.
Firstly, the three mice of each group were subjected to heart perfusion at the end of the animal experiment, and the whole brain was removed and placed in 15 mL of 4% paraformaldehyde and stored at 4 °C for 24 h. Secondly, we changed 4% paraformaldehyde into 15% sucrose solution and stored the solution at 4 °C for 24 h. We then changed the solution to 30% sucrose solution to dehydrate for 2 days. Thirdly, the mouse brain tissue was embedded in a cryo-embedding medium, and about 80 slices with a thickness of 20 μm were cut in the hippocampus using a cryostat (Thermal Fisher, Shanghai, China). The sections of mice in each group were immunohistochemically stained with primary antibodies, such as neuronal nuclear anti gen (NeuN), ionized calcium-binding adapter molecule 1 (Iba-1), inducible nitric oxide synthase (iNOS, pro-inflammatory factors), synaptophysin (Syp), and glial fibrillary acidic protein (GFAP), and secondary antibody. The product number and usage ratios of primary and secondary antibodies are detailed in Supplementary Table S4. Finally, the sections were observed under an upright two-photon confocal microscope (Olympus BX61, Tokyo, Japan) and recorded by a camera. The pictures were digitized with ImageJ software V1.8.0.112 (National Institutes of Health, Bethesda, MD, USA).
Western blot analysis for p-AMPK α, AMPK α, p-mTOR, mTOR, p-ULK1, ULK1, and LC3-I/II was conducted according to the information described in the materials and methods section of Supplementary Information.
1.3. Western blot analysis. […]
The supernatants of each group were used as protein samples. For animal samples, an appropriate amount of tissue, such as cerebral cortex and hippocampus (50–100 mg), of each group was weighed, and we added lysis buffer with 1:9 ratios. After grinding and centrifuging, the supernatants of each group were used as protein samples. The protein concentration was measured with a BCA assay kit (Beijing Cowin Biotech Company, Beijing, China). Sodium dodecyl sulphate polyacrylamide gel electrophoresis (SDS-PAGE) was used to separate proteins (15 μg), which were transferred to PVDF membranes. The membrane was incubated with primary and secondary antibodies (Supplementary Table S5 for details). Antigens were visualised using a high-sensitivity chemiluminescence detection kit (Beijing Cowin Biotech Company, Beijing, China). Bands were quantitatively measured using ImageJ software (National Institutes of Health, Bethesda, MD, USA).

[4] = test system: PC12 cells; test: Autophagy flow assay (CYTO-ID) in PC12 cells; assay type: cell-based
Method: The experiment was carried out according to the instructions of the CYTO-ID autophagy detection kit (Enzo Biochem, New York, NY, USA). In brief, we seeded 7.5 × 10^4 PC12 cells in each well of a 24-well plate using the cell slide method. The cells were incubated for 24 h at 37 °C in a 5% CO2 incubator. The experiment was divided into control (0.5% DMSO), positive control rapamycin (Rap 500 nM + chloroquine (CQ)), GENI treated-group (10 μM GENI + 10 μM CQ), 3-MA inhibitor group (5 mM 3-MA + 10 μM CQ) and GENI + 3MA group (5 mM 3-MA + 10 μM GENI + 10 μM CQ). The optimum concentration of 3MA inhibitor was referenced in the other report. At first, 0.5 mL of serum-free DMEM (plus 1% dual anti-penicillin–streptomycin) containing 3-MA (5 mM) was used to replace the medium in two groups as well as 0.5 mL of serum-free DMEM was added in the other groups, respectively. After treating for 6 h, 0.5 mL of DMEM containing DMSO (0.5%), Rap (500 nM) + CQ (10 μM), GENI (10 μM) + CQ (10 μM), CQ (10 μM), and GENI (10 μM) + CQ (10 μM) was added into the corresponding group, respectively. After 18 h, we removed the medium and washed cells twice with 1× assay buffer containing 5% FBS. We then added CYTO-ID Green detection reagent and Hocchst 33342 nuclear stain to the cells, which were incubated at 37 °C for 45 min. After three washes with 1× assay buffer, we fixed cells with 4% paraformaldehyde for 20 min. After three washes with 1× assay buffer, we observed the cells with an upright two-photon confocal microscope (Olympus FV1000BX-51, Tokyo, Japan).

With `CC(C)CCOC(=O)C1=CO[C@@H](O[C@@H]2O[C@H](CO)[C@@H](O)[C@H](O)[C@H]2O)C2C(CO)=CCC12` (some centres unmarked) [GENI, Geniposidic 4-isoamyl ester] the “myocardial hypertrophy and toxic side effects” value [1] was “did not find”, the “stability of p53 against pronase (DARTS)” value [2] was “no obvious effect” and the “APP and Tau of hippocampus CA, DG, and cerebral cortex, Aβ and Tau phosphorylation of cerebral cortex” value [3] was “significantly decreased”. For the same compound, the “fluorescence intensity of autophagosomes” value ([4]; 10 μM GENI + 10 μM CQ, compared with the control group) was “significantly increased” and the “autophagy effect relative to positive control Rap at 500 nM” value ([4]; GENI at 10 μM) was “comparable”.
